Experiment [1] is described as follows: Antiproliferative activity against human SUP-M2 cells assessed as growth inhibition at 1000 nM after 72 hrs by SRB assay. As to conditions: SUP-M2, 72 h, read-out: GI. It counts as functional. (In general: The SRB assay estimates cell density from bound dye.)
Experiment [2] in a line: Antiproliferative activity against human SUP-M2 cells assessed as growth inhibition at 200 nM after 72 hrs by SRB assay. It counts as functional. The conditions noted are these: SUP-M2, 72 h, read-out: GI.
The target in experiment [3] is T1, ALK tyrosine kinase receptor (Homo sapiens, UniProt Q9UM73). The experiment can be described thus: Inhibition of purified ALK (unknown origin) after 60 mins by ELISA kinase assay.
Target sequence in this assay (Q9UM73 whole entry): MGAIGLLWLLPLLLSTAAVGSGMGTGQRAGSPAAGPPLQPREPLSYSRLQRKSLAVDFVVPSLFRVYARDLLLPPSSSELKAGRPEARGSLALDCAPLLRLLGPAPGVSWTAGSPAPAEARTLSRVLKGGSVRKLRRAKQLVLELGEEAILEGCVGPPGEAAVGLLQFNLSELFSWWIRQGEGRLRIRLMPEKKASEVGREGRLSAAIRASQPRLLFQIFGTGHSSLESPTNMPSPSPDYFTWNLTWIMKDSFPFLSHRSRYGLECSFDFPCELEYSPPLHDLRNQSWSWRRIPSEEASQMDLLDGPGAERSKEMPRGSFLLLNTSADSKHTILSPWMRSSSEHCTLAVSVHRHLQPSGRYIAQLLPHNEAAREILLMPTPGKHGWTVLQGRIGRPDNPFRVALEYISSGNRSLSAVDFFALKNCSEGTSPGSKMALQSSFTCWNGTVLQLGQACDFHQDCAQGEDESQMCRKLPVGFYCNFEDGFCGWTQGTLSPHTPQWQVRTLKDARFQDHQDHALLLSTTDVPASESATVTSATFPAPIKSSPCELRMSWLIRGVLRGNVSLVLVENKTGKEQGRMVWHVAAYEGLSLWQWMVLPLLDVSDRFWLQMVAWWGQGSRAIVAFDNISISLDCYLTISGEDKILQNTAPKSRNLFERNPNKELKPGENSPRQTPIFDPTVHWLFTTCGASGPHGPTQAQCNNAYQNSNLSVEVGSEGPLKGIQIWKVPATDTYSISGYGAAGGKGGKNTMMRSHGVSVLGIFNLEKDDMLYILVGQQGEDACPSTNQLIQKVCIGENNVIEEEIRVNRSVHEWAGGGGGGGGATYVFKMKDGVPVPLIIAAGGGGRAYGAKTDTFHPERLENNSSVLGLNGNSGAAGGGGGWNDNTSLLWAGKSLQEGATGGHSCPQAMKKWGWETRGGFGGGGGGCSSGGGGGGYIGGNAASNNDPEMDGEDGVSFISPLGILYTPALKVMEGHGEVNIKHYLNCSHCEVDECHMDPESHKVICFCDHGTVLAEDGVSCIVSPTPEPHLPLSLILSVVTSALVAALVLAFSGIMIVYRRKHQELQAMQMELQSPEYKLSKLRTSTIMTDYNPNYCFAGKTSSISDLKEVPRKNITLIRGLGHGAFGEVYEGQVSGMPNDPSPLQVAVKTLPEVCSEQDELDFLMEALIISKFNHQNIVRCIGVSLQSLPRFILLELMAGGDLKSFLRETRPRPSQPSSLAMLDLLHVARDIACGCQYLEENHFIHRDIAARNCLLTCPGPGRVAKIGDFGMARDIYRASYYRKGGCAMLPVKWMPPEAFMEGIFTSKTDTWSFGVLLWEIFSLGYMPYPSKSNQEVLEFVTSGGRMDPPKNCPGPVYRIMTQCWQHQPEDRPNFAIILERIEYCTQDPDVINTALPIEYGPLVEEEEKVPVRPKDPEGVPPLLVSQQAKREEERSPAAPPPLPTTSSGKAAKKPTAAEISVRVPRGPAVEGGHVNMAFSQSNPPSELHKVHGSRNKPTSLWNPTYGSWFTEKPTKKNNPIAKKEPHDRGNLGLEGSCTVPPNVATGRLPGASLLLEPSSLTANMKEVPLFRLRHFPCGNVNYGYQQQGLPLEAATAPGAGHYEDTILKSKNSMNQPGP
Experiment [4] has as its target T1, ALK tyrosine kinase receptor. The experiment can be described thus: Inhibition of ALK phosphorylation in human H3122 cells. It counts as cell-based.
Target sequence in this assay (Q9UM73 19-1620 limits assumed): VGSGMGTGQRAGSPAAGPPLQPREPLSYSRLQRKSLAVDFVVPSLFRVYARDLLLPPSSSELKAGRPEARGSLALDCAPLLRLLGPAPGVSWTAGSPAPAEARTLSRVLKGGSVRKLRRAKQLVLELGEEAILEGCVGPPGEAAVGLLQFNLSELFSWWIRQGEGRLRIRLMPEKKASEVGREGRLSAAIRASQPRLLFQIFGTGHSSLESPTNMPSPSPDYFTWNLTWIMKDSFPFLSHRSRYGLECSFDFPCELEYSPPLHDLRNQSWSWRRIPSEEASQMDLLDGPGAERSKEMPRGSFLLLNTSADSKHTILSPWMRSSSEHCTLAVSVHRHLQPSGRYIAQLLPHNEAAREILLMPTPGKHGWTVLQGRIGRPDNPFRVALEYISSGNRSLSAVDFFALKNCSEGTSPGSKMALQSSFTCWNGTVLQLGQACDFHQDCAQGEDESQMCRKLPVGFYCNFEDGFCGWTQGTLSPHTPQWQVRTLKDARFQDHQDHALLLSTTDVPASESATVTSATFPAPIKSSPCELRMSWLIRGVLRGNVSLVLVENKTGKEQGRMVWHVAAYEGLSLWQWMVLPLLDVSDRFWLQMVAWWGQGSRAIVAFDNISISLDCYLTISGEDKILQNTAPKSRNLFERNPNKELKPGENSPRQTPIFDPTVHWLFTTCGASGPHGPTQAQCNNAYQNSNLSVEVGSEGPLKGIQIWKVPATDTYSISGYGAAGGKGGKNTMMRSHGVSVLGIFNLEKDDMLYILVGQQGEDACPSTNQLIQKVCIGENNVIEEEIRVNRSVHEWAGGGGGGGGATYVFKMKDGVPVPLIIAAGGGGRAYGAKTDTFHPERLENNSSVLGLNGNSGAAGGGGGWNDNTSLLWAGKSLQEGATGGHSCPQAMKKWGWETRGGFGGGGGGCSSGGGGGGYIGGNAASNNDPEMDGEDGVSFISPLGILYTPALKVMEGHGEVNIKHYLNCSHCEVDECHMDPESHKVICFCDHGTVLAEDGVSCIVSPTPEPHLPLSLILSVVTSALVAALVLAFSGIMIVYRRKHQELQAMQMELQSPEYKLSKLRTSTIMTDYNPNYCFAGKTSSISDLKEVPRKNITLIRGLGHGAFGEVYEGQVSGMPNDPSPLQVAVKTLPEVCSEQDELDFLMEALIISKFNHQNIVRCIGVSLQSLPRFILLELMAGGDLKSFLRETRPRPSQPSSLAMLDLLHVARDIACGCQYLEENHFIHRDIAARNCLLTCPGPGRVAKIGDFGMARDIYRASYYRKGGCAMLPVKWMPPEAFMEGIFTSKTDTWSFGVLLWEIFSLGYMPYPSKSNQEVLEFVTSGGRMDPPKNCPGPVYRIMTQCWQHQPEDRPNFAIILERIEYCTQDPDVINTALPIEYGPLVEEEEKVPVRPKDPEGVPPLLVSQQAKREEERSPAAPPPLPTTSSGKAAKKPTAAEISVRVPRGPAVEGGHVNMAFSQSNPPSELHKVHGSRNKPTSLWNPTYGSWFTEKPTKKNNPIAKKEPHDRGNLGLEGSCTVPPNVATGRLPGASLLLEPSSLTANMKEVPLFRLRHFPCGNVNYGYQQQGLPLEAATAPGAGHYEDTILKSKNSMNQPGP
For experiment [5] the target is unchanged. The experiment can be described thus: Inhibition of ALK-mediated AKT phosphorylation in human H3122 cells. The class given is cell-based.
Target sequence in this assay (Q9UM73 19-1620 limits assumed): as above
Experiment [6] has as its target Tyrosine-protein kinase ABL1 (Homo sapiens) (UniProt P00519). The experiment in a line: Inhibition of purified Abl (unknown origin) at 1 uM after 60 mins by ELISA kinase assay. (ELISA stands for enzyme-linked immunosorbent assay.)
Experiment [7] concerns the target Platelet-derived growth factor receptor beta (Homo sapiens) (UniProt P09619). The experiment in a line: Inhibition of purified PDGFRbeta (unknown origin) at 1 uM after 60 mins by ELISA kinase assay.
Experiment [8] has as its target T2, Hepatocyte growth factor receptor (Homo sapiens, UniProt P08581). The experiment can be described thus: Inhibition of purified c-MET (unknown origin) at 1 uM after 60 mins by ELISA kinase assay.
In experiment [9] the target is Epidermal growth factor receptor (Homo sapiens) (UniProt P00533). The experiment can be described thus: Inhibition of purified EGFR (unknown origin) at 1 uM after 60 mins by ELISA kinase assay.
For experiment [10], the target named is Platelet-derived growth factor receptor alpha (Homo sapiens) (UniProt P16234). The experiment in a line: Inhibition of purified PDGFRalpha (unknown origin) at 1 uM after 60 mins by ELISA kinase assay.
The target in experiment [11] is T1, ALK tyrosine kinase receptor. The experiment can be described thus: Inhibition of ALK-mediated STAT3 phosphorylation in human H3122 cells. The class given is cell-based.
Target sequence in this assay (Q9UM73 19-1620 limits assumed): as above
The target in experiment [12] is Ephrin type-A receptor 2 (Homo sapiens) (UniProt P29317). The experiment in a line: Inhibition of purified EPH-A2 (unknown origin) at 1 uM after 60 mins by ELISA kinase assay.
The target of experiment [13] is Receptor tyrosine-protein kinase erbB-4 (Homo sapiens) (UniProt Q15303). The experiment in a line: Inhibition of purified ErbB4 (unknown origin) at 1 uM after 60 mins by ELISA kinase assay.
For experiment [14], the target named is Proto-oncogene tyrosine-protein kinase receptor Ret (Homo sapiens) (UniProt P07949). The experiment can be described thus: Inhibition of purified RET (unknown origin) at 1 uM after 60 mins by ELISA kinase assay.
Experiment [15] has as its target Insulin-like growth factor 1 receptor (Homo sapiens) (UniProt P08069). The experiment can be described thus: Inhibition of purified IGF1R (unknown origin) at 0.1 uM after 60 mins by ELISA kinase assay.
In experiment [16] the target is ALK tyrosine kinase receptor (Homo sapiens, UniProt Q9UM73, L1196M). The experiment in a line: Inhibition of purified ALK L1196M mutant (unknown origin) after 60 mins by ELISA kinase assay.
Experiment [17] addresses Vascular endothelial growth factor receptor 1 (Homo sapiens) (UniProt P17948). The experiment can be described thus: Inhibition of purified Flt-1 (unknown origin) at 1 uM after 60 mins by ELISA kinase assay.
For experiment [18], the target named is Fibroblast growth factor receptor 1 (Homo sapiens) (UniProt P11362). The experiment in a line: Inhibition of purified FGFR1 (unknown origin) at 1 uM after 60 mins by ELISA kinase assay.
Experiment [19] concerns the target T1, ALK tyrosine kinase receptor. The experiment can be described thus: Inhibition of ALK-mediated ERK phosphorylation in human H3122 cells. It counts as cell-based.
Target sequence in this assay (Q9UM73 19-1620 limits assumed): as above
Experiment [20] deals with Fibroblast growth factor receptor 1 (Homo sapiens) (UniProt P11362). The experiment in a line: Inhibition of purified FGFR1 (unknown origin) at 0.1 uM after 60 mins by ELISA kinase assay.
Experiment [21] addresses Insulin-like growth factor 1 receptor (Homo sapiens) (UniProt P08069). The experiment in a line: Inhibition of purified IGF1R (unknown origin) at 1 uM after 60 mins by ELISA kinase assay.
Experiment [22] addresses Receptor tyrosine-protein kinase erbB-2 (Homo sapiens) (UniProt P04626). The experiment in a line: Inhibition of purified ErbB2 (unknown origin) at 1 uM after 60 mins by ELISA kinase assay.
Experiment [23] has as its target Vascular endothelial growth factor receptor 2 (Homo sapiens) (UniProt P35968). The experiment can be described thus: Inhibition of purified KDR (unknown origin) at 1 uM after 60 mins by ELISA kinase assay.
Experiment [24] has as its target Proto-oncogene tyrosine-protein kinase Src (Homo sapiens) (UniProt P12931). The experiment in a line: Inhibition of purified c-Src (unknown origin) at 1 uM after 60 mins by ELISA kinase assay.
Experiment [25] deals with Vascular endothelial growth factor receptor 2 (Homo sapiens) (UniProt P35968). The experiment can be described thus: Inhibition of purified KDR (unknown origin) at 0.1 uM after 60 mins by ELISA kinase assay.
For experiment [26], the target named is Receptor-type tyrosine-protein kinase FLT3 (Homo sapiens) (UniProt P36888). The experiment can be described thus: Inhibition of purified Flt-3 (unknown origin) at 1 uM after 60 mins by ELISA kinase assay.
The target in experiment [27] is T2, Hepatocyte growth factor receptor. The experiment can be described thus: Inhibition of purified c-MET (unknown origin) after 60 mins by ELISA kinase assay.
The target in experiment [28] is T1, ALK tyrosine kinase receptor. The conditions noted are these: 1 uM.
Target sequence in this assay (Q9UM73 19-1620 limits assumed): as above
Description: Inhibition of purified ALK (unknown origin) at 1 uM after 60 mins by ELISA kinase assay

Structures are written as SMILES.

Sequence of Insulin-like growth factor 1 receptor (Homo sapiens) (P08069 31-736 limits assumed): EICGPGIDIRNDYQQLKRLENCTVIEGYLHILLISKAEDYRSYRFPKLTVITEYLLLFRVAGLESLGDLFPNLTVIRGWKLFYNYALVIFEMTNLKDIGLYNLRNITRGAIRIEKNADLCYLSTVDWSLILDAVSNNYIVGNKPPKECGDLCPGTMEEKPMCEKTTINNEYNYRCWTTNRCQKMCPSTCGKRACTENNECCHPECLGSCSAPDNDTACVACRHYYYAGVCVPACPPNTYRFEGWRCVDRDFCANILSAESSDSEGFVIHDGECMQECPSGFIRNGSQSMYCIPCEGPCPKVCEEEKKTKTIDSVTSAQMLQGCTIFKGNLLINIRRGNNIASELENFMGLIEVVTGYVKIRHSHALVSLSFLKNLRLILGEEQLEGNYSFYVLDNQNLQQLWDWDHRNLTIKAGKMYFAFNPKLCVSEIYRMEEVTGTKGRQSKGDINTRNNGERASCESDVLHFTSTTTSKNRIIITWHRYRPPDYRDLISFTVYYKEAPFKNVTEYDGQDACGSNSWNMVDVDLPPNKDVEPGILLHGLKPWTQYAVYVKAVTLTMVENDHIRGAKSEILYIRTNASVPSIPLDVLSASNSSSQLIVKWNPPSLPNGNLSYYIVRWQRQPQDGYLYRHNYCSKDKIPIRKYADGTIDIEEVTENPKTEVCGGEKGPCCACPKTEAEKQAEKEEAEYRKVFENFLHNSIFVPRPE
Sequence of Insulin-like growth factor 1 receptor (Homo sapiens) (P08069 741-1367 limits assumed): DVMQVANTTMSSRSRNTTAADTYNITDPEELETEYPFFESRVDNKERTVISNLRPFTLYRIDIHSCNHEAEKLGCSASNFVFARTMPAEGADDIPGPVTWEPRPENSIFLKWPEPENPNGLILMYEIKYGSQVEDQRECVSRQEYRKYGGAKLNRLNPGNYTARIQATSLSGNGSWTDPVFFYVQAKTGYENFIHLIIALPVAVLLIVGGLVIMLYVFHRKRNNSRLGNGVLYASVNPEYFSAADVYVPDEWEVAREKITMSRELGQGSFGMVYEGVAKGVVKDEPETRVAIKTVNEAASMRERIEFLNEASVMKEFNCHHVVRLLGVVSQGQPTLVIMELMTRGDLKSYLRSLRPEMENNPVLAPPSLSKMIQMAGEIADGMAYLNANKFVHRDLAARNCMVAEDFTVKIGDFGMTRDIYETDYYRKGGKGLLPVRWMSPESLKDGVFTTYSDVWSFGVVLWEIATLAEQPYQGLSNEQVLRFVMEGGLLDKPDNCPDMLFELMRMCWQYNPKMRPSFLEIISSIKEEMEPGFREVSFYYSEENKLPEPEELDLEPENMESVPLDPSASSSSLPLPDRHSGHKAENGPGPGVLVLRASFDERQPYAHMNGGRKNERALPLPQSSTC
Sequence of ALK tyrosine kinase receptor (Homo sapiens, UniProt Q9UM73, L1196M) (Q9UM73 19-1620 L1196M limits assumed): as the sequence (Q9UM73 19-1620 limits assumed) above, with L1178M counted along it

For the compound `CCOC(=O)N1CCc2nc(Nc3ncc(Cl)c(Nc4ccccc4S(=O)(=O)C(C)C)n3)sc2CC1`, the inhibition of growth at 1 µM in [1] amounted to 16.1%. Besides, the inhibition of growth at 0.2 µM in experiment [2] came out at 5.5%.
Take `CC(C)S(=O)(=O)c1ccccc1Nc1nc(Nc2nc3c(s2)CCN(CCN2CCOCC2)CC3)ncc1Cl`: the inhibition of growth at 1 µM in experiment [1] amounted to 83.5%. Also, in [2], the inhibition of growth at 0.2 µM worked out at 19.8%.
As for `CC(C)S(=O)(=O)c1ccccc1Nc1nc(Nc2nc(C(=O)N3CCOCC3)cs2)ncc1Cl`, in experiment [3], the 50% inhibitory concentration (IC50) (usually the concentration that inhibits the measured activity by half) is more than 1000 nM.
In the case of `CCCCOC(=O)c1csc(Nc2ncc(Cl)c(Nc3ccccc3S(=O)(=O)C(C)C)n2)n1`, the IC50 in experiment [3] is more than 1000 nM.
Turning to `CC(C)S(=O)(=O)c1ccccc1Nc1nc(Nc2nc3c(s2)CCN(C(=O)C2CCOCC2)CC3)ncc1Cl`, in experiment [1], the inhibition of growth at 1 µM came to 84.1%. For the same compound, the inhibition (in general, how much of the control response was suppressed) is “Dose-dependent effect” in experiment [4]; “Dose-dependent effect” in [5]; 45.6% in experiment [6]; 5.6% in experiment [7]; 4.9% in experiment [8]; 15.8% in experiment [9]. Besides, the inhibition in [10] was 18%; in experiment [11] it was “Dose-dependent effect”; in [12], 23%; in experiment [13] it was 33.4%; in experiment [14], 77%; in [15], 15.8%. Besides, the inhibition in [17] is 0%; in experiment [18], 100%; in [19], “Dose-dependent effect”; in [20], 69.2%; in [21], 52.8%; in experiment [22] it was 0%. Also, the values for the inhibition in experiment [23], in [24] and in experiment [25] were 53.5%, 51.3% and 40.6%, respectively. Besides, in [2], the inhibition of growth at 0.2 µM is 23.2%. The IC50 was 24 nM in experiment [16] and 12.4 nM in experiment [3].
In experiment [3], `CNC(=O)c1csc(Nc2ncc(Cl)c(Nc3ccccc3S(=O)(=O)C(C)C)n2)n1` registered an IC50 of more than 1000 nM.
On the same count and under the same terms, for `CC(C)S(=O)(=O)c1ccccc1Nc1nc(Nc2nc(C(=O)N3CC4(CCNCC4)C3)cs2)ncc1Cl` the value was more than 1000 nM.
As for `CNC(=O)c1ccccc1Nc1nc(Nc2nc3c(s2)CCNCC3)ncc1Cl`, the inhibition stood at 73.9% in experiment [6]; 96% in experiment [8]; 63.2% in [12]; 60.1% in experiment [13]; 81.5% in experiment [14]; 20.5% in [26]. Further, the inhibition in experiment [17] was 16.3%; in experiment [21] it was 5.7%; in [24], 20.7%; in experiment [28], 96%. In addition, the IC50 in [27] turned out to be 20 nM; in experiment [3], 61.8 nM.
With `CC(C)S(=O)(=O)c1ccccc1Nc1nc(Nc2nc(C(=O)N3C[C@H]4CN(C)C[C@H]4C3)cs2)ncc1Cl`, the inhibition of growth at 1 µM in experiment [1] was found to be 61.4%. Moreover, in experiment [2], the inhibition of growth at 0.2 µM was -0.1%.
For `CC(C)S(=O)(=O)c1ccccc1Nc1nc(Nc2ncc(C(=O)N3C[C@H]4CN(C)C[C@H]4C3)s2)ncc1Cl`, the IC50 in [3] is more than 1000 nM.
For the compound `CC(C)S(=O)(=O)c1ccccc1Nc1nc(Nc2nc3c(s2)CCN(C(=O)CO)CC3)ncc1Cl`, the inhibition of growth at 1 µM in experiment [1] turned out to be 80.7%. For the same compound, in experiment [2], the inhibition of growth at 0.2 µM was found to be 3.7%.
As to `COC(=O)c1csc(Nc2ncc(Cl)c(Nc3ccccc3S(=O)(=O)C(C)C)n2)n1`, the IC50 in [3] was more than 1000 nM.
In experiment [3], `CC(C)S(=O)(=O)c1ccccc1Nc1nc(Nc2nc(C(=O)N3CCCCC3)cs2)ncc1Cl` came in with an IC50 of more than 1000 nM.
In [3], `COc1cc(NC(=O)c2csc(Nc3ncc(Cl)c(Nc4ccccc4S(=O)(=O)C(C)C)n3)n2)cc(OC)c1OC` registered an IC50 of more than 1000 nM.
For the compound `CC(C)S(=O)(=O)c1ccccc1Nc1nc(Nc2nc3c(s2)CCN(C)CC3)ncc1Cl`, the inhibition of growth at 1 µM in experiment [1] worked out at 67.7%. Moreover, the inhibition of growth at 0.2 µM in [2] amounted to 0.15%.
In experiment [3], `CC(C)S(=O)(=O)c1ccccc1Nc1nc(Nc2nc(C(=O)O)cs2)ncc1Cl` had an IC50 of more than 1000 nM.
`CC(C)S(=O)(=O)c1ccccc1Nc1nc(Nc2nc(C(=O)N3CC4CCC(C3)O4)cs2)ncc1Cl`: the inhibition of growth at 1 µM in experiment [1] is 63.4%. The inhibition of growth at 0.2 µM in [2] was determined as 18.4%.
In [3], `CCOC(=O)c1csc(Nc2ncc(Cl)c(Nc3ccccc3S(=O)(=O)C(C)C)n2)n1` had an IC50 of more than 1000 nM.
The same measure, in the same setting: for `CC(C)S(=O)(=O)c1ccccc1Nc1nc(Nc2nc3c(s2)CNCC3)ncc1Cl` the value was more than 1000 nM; for `CC(C)S(=O)(=O)c1ccccc1Nc1nc(Nc2nc3c(s2)CN(C)CC3)ncc1Cl`, more than 1000 nM.
`CC(C)S(=O)(=O)c1ccccc1Nc1nc(Nc2nc3c(s2)CCN(CC2CCOCC2)CC3)ncc1Cl`: the inhibition of growth at 1 µM in experiment [1] amounted to 59.9%. Further, the inhibition of growth at 0.2 µM in [2] is -13.7%.
As for `CC(C)S(=O)(=O)c1ccccc1Nc1nc(Nc2nc(C(=O)NCCN3CCOCC3)cs2)ncc1Cl`, the inhibition of growth at 1 µM in experiment [1] amounted to 73.6%. For the same compound, the inhibition of growth at 0.2 µM in experiment [2] was determined as 29.5%.

(Values after ChEMBL document CHEMBL3352334, “Design, synthesis and pharmacological evaluation of 2-(thiazol-2-amino)-4-arylaminopyrimidines as potent anaplastic lymphoma kinase (ALK) inhibitors” (Eur J Med Chem, 2014).)
